Experimental data: BindingDB's records for doi:10.1016/S0960-894X(96)00246-6 (1996)

experiment: Inhibition of ADP-induced human platelet aggregation

Row | Structure (SMILES) | IC50
1 | CC(C)C[C@H](NC(=O)[C@H](CC(=O)O)NC(=O)CCCOc1ccc(C(=N)N)cc1)C(=O)O [(S)-2-{(S)-2-[4-(4-Carbamimidoyl-phenoxy)-butyrylamino]-3-carboxy-propionylamino}-4-methyl-pentanoic acid] | 130 nM
2 | CC(C)(C)[C@H](NC(=O)[C@H](CC(=O)O)NC(=O)CCCOc1ccc(C(=N)N)cc1)C(=O)O | 230 nM
3 | CC(C)[C@H](NC(=O)[C@H](CC(=O)O)NC(=O)CCCOc1ccc(C(=N)N)cc1)C(=O)O [2-{2-[4-(4-Carbamimidoyl-phenoxy)-butyrylamino]-3-carboxy-propionylamino}-3-methyl-butyric acid (FK633)] | 100 nM
4 | CN(C(=O)[C@H](CC(=O)O)NC(=O)CCCOc1ccc(C(=N)N)cc1)[C@@H](Cc1ccc(O)cc1)C(=O)O [(S)-3-[4-(4-Carbamimidoyl-phenoxy)-butyrylamino]-N-[(S)-1-carboxy-2-(4-hydroxy-phenyl)-ethyl]-N-methyl-succinamic acid] | 120 nM
5 | COc1ccc(C[C@H](NC(=O)[C@H](CC(=O)O)NC(=O)CCCCOc2ccc(C(=N)N)cc2)C(=O)O)cc1 [(S)-3-[5-(4-Carbamimidoyl-phenoxy)-pentanoylamino]-N-[(S)-1-carboxy-2-(4-methoxy-phenyl)-ethyl]-succinamic acid] | 4500 nM
